Measured values reported in patent US11661413B2, “Pyrazole compounds or salts thereof, preparation method therefor, herbicidal composition and use thereof” (priority 2015, dated 2023).

Tests used:
Arrowhead = assay: weed control effect in transplanted rice field (pot, water application); format: in vivo, Sagittaria trifolia; conditions: 500 g a.i./ha, treated at primary leaf stage, 14 days after treatment, naked eye, weed resistant to pyrazosulfuron-ethyl
Description: (§1) Rice field soil was loaded into a 1/1,000,000 ha pot. The seeds of Echinochloa, Scirpus juncoides, Bidens tripartite and Sagittaria trifolia were sowed and gently covered with soil, then left to stand still in greenhouse in the state of 0.5-1 cm of water storage. The tuber of Sagittaria trifolia was planted in the next day or 2 days later. It was kept at 3-4 cm of water storage thereafter. The weeds were treated by dripping the WP or SC water diluents prepared according to the common preparation method of the compounds of the present invention with pipette homogeneously to achieve specified effective amount when Echinochloa, Scirpus juncoides and Bidens tripartite reached 0.5 leaf stage and Sagittaria trifolia reached the time point of primary leaf stage.
(§2) The fertility condition of Echinochloa, Scirpus juncoides, Bidens tripartite and Sagittaria trifolia 14 days after the treatment of the compound of the invention and the fertility condition of rice 21 days after the treatment of the compound of the invention respectively with the naked eye.
(§3) Note: The seeds of barnyard grass, rushlike bulrush, arrowhead and beggartick are collected from Heilongjing Province of China. Tests indicate that the weeds are resistant to common application rate of pyrazosulfuron-ethyl.

rushlike bulrush = assay: as above; format: in vivo, Scirpus juncoides; conditions: 500 g a.i./ha, treated at 0.5 leaf stage, 14 days after treatment, naked eye, weed resistant to pyrazosulfuron-ethyl
Description: as §1, §2, §3

Barnyard grass [1] = assay: as above; format: in vivo, Echinochloa; conditions: 500 g a.i./ha, treated at 0.5 leaf stage, 14 days after treatment, naked eye, weed resistant to pyrazosulfuron-ethyl
Description: as §1, §2, §3

Flixweed = assay: weed control effect in post emergence stage, greenhouse pot spray; format: in vivo; conditions: 16 g/mu, sprayed at 2-3 leaf stage, after 3 weeks
Description: (§4) The activity level standard of harmful plant damage (i.e. growth inhibition rate) is as follows: The above described growth control rate is fresh weight control rate. Monocotyledonous and dicotyledonous weed seeds and main crop seeds (i.e. wheat, corn, rice, soybean, cotton, oilseed, millet and Sorghum) were put into a plastic pot loaded with soil. Then covered with 0.5-2 cm soil, the seeds were allowed to grow in good greenhouse environment. The test plants were treated at 2-3 leaf stage 2-3 weeks after sowing. […] The solution was sprayed to the plants with a sprayer. Then the plants were cultured for 3 weeks in the greenhouse.

Barnyard grass [2] = assay: as above; format: in vivo; conditions: sprayed at 2-3 leaf stage, after 3 weeks
Description: as §4

Beggartick = assay: weed control effect in transplanted rice field (pot, water application); format: in vivo, Bidens tripartite; conditions: 500 g a.i./ha, treated at 0.5 leaf stage, 14 days after treatment, naked eye, weed resistant to pyrazosulfuron-ethyl
Description: as §1, §2, §3

Rice = assay: transplanted rice safety evaluation; format: in vivo; conditions: transplanted 3 leaf stage japonica rice, 500 g a.i./ha, treated 5 days after transplantation, 21 days after treatment, naked eye
Description: In addition, the rice field soil that loaded into the 1/1,000,000 ha pot was leveled to keep water storage at 3-4 cm depth. The 3 leaf stage rice (japonica rice) was transplanted at 3 cm of transplanting depth the next day. The compound of the present invention was treated by the same way after 5 days of transplantation.
as §2

Corn = assay: post emergence stage greenhouse pot spray, corn safety; format: in vivo; conditions: 16 g/mu, sprayed at 2-3 leaf stage, after 3 weeks; note: key: 10: completely dead; above 90% growth inhibition rate; above 80% growth inhibition rate; above 70% growth inhibition rate; above 60% growth inhibition rate; above 50% growth inhibition rate; 4: above 30% growth inhibition rate; above 30% growth inhibition rate; above 20% growth inhibition rate; above 1-10% growth inhibition rate; 0: no effect
Description: as §4

Ning Jing 43 = assay: post emergence stage greenhouse pot spray, rice safety; format: in vivo; design: key: 10: completely dead; above 90% growth inhibition rate; above 80% growth inhibition rate; above 70% growth inhibition rate; above 60% growth inhibition rate; above 50% growth inhibition rate; 4: above 30% growth inhibition rate; above 30% growth inhibition rate; above 20% growth inhibition rate; above 1-10% growth inhibition rate; 0: no effect; conditions: sprayed at 2-3 leaf stage, after 3 weeks
Description: as §4

Wheat = assay: post emergence stage greenhouse pot spray, wheat safety; format: in vivo; conditions: 16 g/mu, sprayed at 2-3 leaf stage, after 3 weeks; note: key: 10: completely dead; above 90% growth inhibition rate; above 80% growth inhibition rate; above 70% growth inhibition rate; above 60% growth inhibition rate; above 50% growth inhibition rate; 4: above 30% growth inhibition rate; above 30% growth inhibition rate; above 20% growth inhibition rate; above 1-10% growth inhibition rate; 0: no effect
Description: as §4

SMILES | weed control effect (activity level), Arrowhead (Arrowhead) | weed control effect (activity level), rushlike bulrush (rushlike bulrush) | weed control effect (activity level), Barnyard grass (Barnyard grass [1]) | weed control effect (activity level), Flixweed (Flixweed) | weed control effect (activity level), Barnyard grass (Barnyard grass [2]; 1 g/mu) | weed control effect (activity level), Barnyard grass (Barnyard grass [2]; 2 g/mu) | weed control effect (activity level), Barnyard grass (Barnyard grass [2]; 4 g/mu) | weed control effect (activity level), Barnyard grass (Barnyard grass [2]; 8 g/mu) | weed control effect (activity level), Barnyard grass (Barnyard grass [2]; 16 g/mu) | weed control effect (activity level), Beggartick (Beggartick) | damage (activity level), Rice (Rice) | damage (activity level), Corn (Corn) | damage (activity level), Ning Jing 43 (Ning Jing 43; 1 g/mu) | damage (activity level), Ning Jing 43 (Ning Jing 43; 2 g/mu) | damage (activity level), Ning Jing 43 (Ning Jing 43; 4 g/mu) | damage (activity level), Ning Jing 43 (Ning Jing 43; 8 g/mu) | damage (activity level), Ning Jing 43 (Ning Jing 43; 16 g/mu) | damage (activity level), Wheat (Wheat)
Cc1cc(C)n(Cc2c(S(C)(=O)=O)ccc(C(=O)c3c(C)nn(C)c3O)c2Cl)n1 [Compound 4] | 9 (above 90% growth inhibition rate) | 10 | 10 | 10 | 3 (above 30% growth inhibition rate) | 4 (above 30% growth inhibition rate) | 5 (above 50% growth inhibition rate) | 5 (above 50% growth inhibition rate) | 7 (above 70% growth inhibition rate) | 9 (above 90% growth inhibition rate) | – | – | – | – | – | – | – | –
Cc1cc(C)n(Cc2c(S(C)(=O)=O)ccc(C(=O)c3c(C4CC4)nn(C)c3O)c2Cl)n1 [Compound 13] | 9 (above 90% growth inhibition rate) | 9 (above 90% growth inhibition rate) | 10 | 10 | 2 (above 20% growth inhibition rate) | 2 (above 20% growth inhibition rate) | 2 (above 20% growth inhibition rate) | 5 (above 50% growth inhibition rate) | 7 (above 70% growth inhibition rate) | 9 (above 90% growth inhibition rate) | – | – | – | – | – | – | – | –
Cc1ccc(S(=O)(=O)Oc2c(C(=O)c3ccc(S(C)(=O)=O)c(Cn4nc(C)cc4C)c3Cl)c(C)nn2C)cc1 [Compound 33] | 10 | 10 | 10 | 10 | 4 (above 30% growth inhibition rate) | 6 (above 60% growth inhibition rate) | 5 (above 50% growth inhibition rate) | 7 (above 70% growth inhibition rate) | 8 (above 80% growth inhibition rate) | 10 | 1 (above 1-10% growth inhibition rate) | 0 | 0 | 0 | 0 | 0 | 0 | 0
Cc1cnn(Cc2c(S(C)(=O)=O)ccc(C(=O)c3c(C)nn(C)c3O)c2Cl)c1 [Compound 1] | 8 (above 80% growth inhibition rate) | 10 | 10 | 10 | 4 (above 30% growth inhibition rate) | 7 (above 70% growth inhibition rate) | 8 (above 80% growth inhibition rate) | 10 | 10 | 9 (above 90% growth inhibition rate) | – | – | – | – | – | – | – | –
Cc1cnn(Cc2c(S(C)(=O)=O)ccc(C(=O)c3c(C4CC4)nn(C)c3O)c2Cl)c1 [Compound 12] | – | – | – | 10 | 2 (above 20% growth inhibition rate) | 4 (above 30% growth inhibition rate) | 6 (above 60% growth inhibition rate) | 7 (above 70% growth inhibition rate) | 8 (above 80% growth inhibition rate) | – | – | – | – | – | – | – | – | –
Cc1cnn(Cc2c(S(C)(=O)=O)ccc(C(=O)c3cnn(C)c3O)c2Cl)c1 [Compound 7] | – | – | – | 10 | 2 (above 20% growth inhibition rate) | 3 (above 30% growth inhibition rate) | 3 (above 30% growth inhibition rate) | 6 (above 60% growth inhibition rate) | 6 (above 60% growth inhibition rate) | – | – | – | – | – | – | – | – | –
Cc1cc(C)n(Cc2c(S(C)(=O)=O)ccc(C(=O)c3c(C)nn(C)c3OCC(=O)OC(C)(C)C)c2Cl)n1 [Compound 35] | 9 (above 90% growth inhibition rate) | 10 | 10 | 10 | 3 (above 30% growth inhibition rate) | 3 (above 30% growth inhibition rate) | 4 (above 30% growth inhibition rate) | 4 (above 30% growth inhibition rate) | 5 (above 50% growth inhibition rate) | 10 | – | – | – | – | – | – | – | –
CCn1nc(C2CC2)c(C(=O)c2ccc(S(C)(=O)=O)c(Cn3nc(C)cc3C)c2Cl)c1O [Compound 23] | – | – | – | 10 | 2 (above 20% growth inhibition rate) | 3 (above 30% growth inhibition rate) | 5 (above 50% growth inhibition rate) | 7 (above 70% growth inhibition rate) | 8 (above 80% growth inhibition rate) | – | – | – | – | – | – | – | – | –
CCc1nn(C)c(O)c1C(=O)c1ccc(S(C)(=O)=O)c(Cn2cc(Cl)cn2)c1Cl [Compound 5] | 10 | 10 | 10 | 10 | 2 (above 20% growth inhibition rate) | 2 (above 20% growth inhibition rate) | 4 (above 30% growth inhibition rate) | 7 (above 70% growth inhibition rate) | 8 (above 80% growth inhibition rate) | 10 | – | – | – | – | – | – | – | –
CCOC(=O)Oc1c(C(=O)c2ccc(S(C)(=O)=O)c(Cn3nc(C)cc3C)c2Cl)c(C)nn1C [Compound 36] | – | – | – | 10 | 2 (above 20% growth inhibition rate) | 3 (above 30% growth inhibition rate) | 4 (above 30% growth inhibition rate) | 4 (above 30% growth inhibition rate) | 5 (above 50% growth inhibition rate) | – | – | – | – | – | – | – | – | –
